In general, viability refers to a per cent measure of how many cells are alive, often set against a control. Low readings indicate more harm to the cells, high ones less harm to the cells.

From patent US20260242416A1, “ANTIMICROBIAL PEPTIDES” (priority 2023, published 2026) come the findings set out here.

SMILES strings stand for the structures. Converted amounts (≈) assume the structure as drawn. “Also recorded” adds a separate entry of the source. Where a SMILES comes first, the peptide text is derived from it.

Series [1] deals with E. coli ATCC 25922. Format: cell-based, Escherichia coli. The following applies: for MIC (ug/mL) E. coli: Table 14, first value of the cell, three independent experiments, highest concentration tested 128. The method in brief:
(§1)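 CLSI broth microdilution adapted for cationic peptides, in Mueller-Hinton broth, inoculum 2-8×10^5 cfu/mL. Peptides serially diluted from 128 to 0.5 μg/mL in polypropylene plates, incubated 20-24 h at 37° C. MIC = lowest concentration without visible growth.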

In series [2] the test system is S. aureus ATCC 29213. Format: cell-based, Staphylococcus aureus. To be noted: Table 14, third value of the cell; three independent experiments; highest concentration tested 128. The method in brief:
as §1

In series [3] the test system is Salmonella enterica serovar Enteritidis (human clinical isolate). In kind it is cell-based. The following applies: for MIC (ug/mL) S. Enteritidis: Table 14, second value of the cell, three independent experiments, highest concentration tested 128. An outline of the steps: as §1
Series [4] deals with porcine red blood cells. As to the kind of experiment: Hemolysis assay (HC50), Example 2. The following applies: up to 128 μg/mL.
Protocol: Peptides were evaluated for toxicity using three independent hemolysis experiments. Whole blood from healthy donor pigs, supplemented with Na Citrate, was purchased from Lampire Biological Laboratories (Pipersville, PA, USA). Red blood cells (RBCs) were washed and isolated by three centrifugation cycles using Roswell Park Memorial Institute medium (RPMI; Thermo-Fisher Scientific) to create a 1% (v/v) RBC solution. […] Following a minimum 30 min incubation at 37° C., plates were centrifuged and % volume from each supernatant was transferred to a new 96-well plate. The absorbance of these wells was measured at 415 nm. To quantify hemolytic activity and determine the AMP concentration that lyses 50% of the RBCs (HC50), absorbance reading from wells containing RBCs treated with 11 μL of a 2% TritonX-100 detergent solution (TX-100) or RPMI (AMP solvent-only) were used to define 100% and 0% hemolysis, respectively. All centrifugation steps were performed at 500× g for five minutes in an Allegra-6R centrifuge (Beckman Coulter, Brea, CA, USA).
Series [5] relates to HEK293 cells. The experiment in a line: alamarBlue cell viability assay (cytotoxicity). The following applies: concentrations up to 128 μg/mL. Format: cell-based, human. Here is the method: (§2) The human embryonic kidney cell line HEK293 and the corresponding growth media and supplements were purchased from the ATCC. The cells were maintained in Eagle's Minimum Essential Medium (EMEM) supplemented with 10% fetal bovine serum (FBS) and 1% Penicillin-Streptomycin solution and grown in a 5% CO2 incubator at 37° C. […] Cells were incubated overnight to allow them to adhere. […] TX-100 was diluted to 2% in UltraPure deionized water and added as a positive control. Complete growth medium was added to the peptides and TX-100 containing wells. Spent growth medium of wells with adhered cells was replaced with the contents of wells containing serially diluted peptides or TX-100. Cells were incubated for four hours at 37° C. in 5% CO2 incubator. Growth medium containing peptides or TX-100 was replaced with fresh growth medium containing 10% (v/v) alamarBlue (Bio-Rad Laboratories, Hercules, CA, USA) and incubated for 20 h. Fluorescence was measured at excitation of 540 nm and emission of 590 nm in a Cytation 5 plate reader (Agilent BioTek, Winooski, VT, USA) and results recorded and analyzed with Gen5 software (Agilent BioTek, Winooski, VT, USA). The average fluorescence reads of TX-100 and growth media only wells were used to calculate 0% and 100% cell viability, respectively. The percentage of viable cells at each peptide concentration was determined by Formula 1: […]
(Resazurin is reduced to fluorescent resorufin, in cell work by metabolically active cells.)

A short description of series [6]: alamarBlue cell viability assay (cytotoxicity). Format: cell-based, human. To be noted: human, HEK293 cells, at 128 μg/mL. On the procedure:
as §2

Series [7] concerns Staphylococcus aureus ATCC 29213. Format: cell-based. To be noted: Table 3; wild-type Staphylococcus aureus ATCC 29213; minimum of three independent experiments. Here is the method: Twenty-one putative AMP sequences identified using the rAMPage pipeline were validated through a minimum of three AST experiments performed independently on separate days. In these tests, the AMP activity was assessed using two metrics: minimum inhibitory concentration and minimum bactericidal concentration (MIC and MBC, respectively). MIC and MBC values were determined using procedures outlined by the Clinical and Laboratory Standards Institute (CLSI), with the recommended adaptations for the testing of cationic AMPs described previously. “Wild-type” strains of Escherichia coli (E. coli 25922) and Staphylococcus aureus (S. aureus 29213) were purchased from the American Type Culture Collection (ATCC; Manassas, VA, USA) and were used for screening of antimicrobial activity. Briefly, putative AMPs were synthesized by Genscript (Piscataway, NJ, USA) and received in lyophilized format. […] This suspension was measured and adjusted to achieve an optical density of 0.08-0.1, equivalent to a 0.5 McFarland standard (1-2×10^8 cfu/mL). […]

Consider `CC[C@H](C)[C@H](NC(=O)[C@@H](N)CCCCN)C(=O)N[C@@H](CCCCN)C(=O)N[C@H](C(=O)N1CCC[C@H]1C(=O)N[C@@H](Cc1c[nH]c2ccccc12)C(=O)NCC(=O)N[C@@H](CCCCN)C(=O)N[C@H](C(=O)N[C@@H](CCCCN)C(=O)N[C@@H](CC(=O)O)C(=O)N[C@@H](Cc1ccccc1)C(=O)N[C@@H](CC(C)C)C(=O)N[C@H](C(=O)NCC(=O)NCC(=O)N[C@@H](CCSC)C(=O)N[C@@H](CCCCN)C(=O)N[C@@H](C)C(=O)N[C@H](C(=O)NCC(=O)N[C@@H](CCCCN)C(=O)N[C@@H](CCCCN)C(=O)O)C(C)C)C(C)C)C(C)C)[C@@H](C)CC` [TeBi1] (H-KIKIPWGKVKDFLVGGMKAVGKK-OH), for which, in series [1], the “MIC against E. coli” value fell in the range of 1 to 2 µg/mL and the “MIC (ug/mL) E. coli” value was 1 to 2 µg/mL. Besides, the “MIC (ug/mL) S. aureus” value in series [2] was 4 to 8 µg/mL. The “MIC (ug/mL) S. Enteritidis” value in series [3] fell in the range of 4 to 8 µg/mL. Further, the “hemolytic activity” value in series [4] was “not hemolytic at the concentrations tested”. In addition, in series [5], the “cytotoxicity” value was “low or no cytotoxicity at lower concentrations; also recorded: high levels of cytotoxicity at concentrations higher than their MICs”. This compound also yielded a viability at 4 h, 128 µg/mL in series [6] of 40%. Also, the “MIC* (μg/mL) S. aureus” value in series [7] is 2 to 8 µg/mL.

In the case of `CC(C)C[C@H](NC(=O)[C@H](CCCCN)NC(=O)[C@H](CCC(=O)O)NC(=O)[C@H](CC(C)C)NC(=O)[C@H](CCCNC(=N)N)NC(=O)[C@@H](NC(=O)[C@H](Cc1ccc(O)cc1)NC(=O)[C@H](CC(N)=O)NC(=O)[C@H](CCCCN)NC(=O)[C@H](CCCCN)NC(=O)[C@H](CC(N)=O)NC(=O)[C@@H](NC(=O)[C@H](CC(C)C)NC(=O)[C@H](CCCCN)NC(=O)[C@H](CCCCN)NC(=O)[C@@H](NC(=O)[C@H](CO)NC(=O)[C@H](CCCCN)NC(=O)[C@H](CO)NC(=O)[C@H](CC(C)C)NC(=O)[C@H](Cc1c[nH]c2ccccc12)NC(=O)[C@@H](N)CO)C(C)C)C(C)C)[C@@H](C)O)C(=O)N[C@@H](C)C(=O)N[C@@H](CCCCN)C(=O)N[C@@H](CCCCN)C(=O)N[C@@H](CCCCN)C(=O)N[C@@H](CC(C)C)C(=O)N[C@@H](Cc1ccccc1)C(=O)N[C@@H](CC(N)=O)C(=O)N[C@@H](CCC(=O)O)C(=O)O` [TeRu4] (H-SWLSKSVKKLVNKKNYTRLEKLAKKKLFNE-OH), in series [1], the “MIC (ug/mL) E. coli” value is 1 µg/mL (≈ 0.276 µM). Also, the “MIC (ug/mL) S. aureus” value in series [2] was over 128 µg/mL. In series [3], the “MIC against Salmonella Enteritidis” value lay in the range of 2 to 4 µg/mL and the “MIC (ug/mL) S. Enteritidis” value lay in the range of 2 to 4 µg/mL. Besides, the “hemolytic activity” value in series [4] is “not hemolytic at the concentrations tested; also recorded: not toxic against either porcine erythrocytes or HEK293 cells”. The “cytotoxicity” value in series [5] is on record as “not to be toxic to HEK293 cells at any of the concentrations tested; also recorded: not toxic against either porcine erythrocytes or HEK293 cells”. In addition, in series [7], the “MIC* (μg/mL) S. aureus” value was over 128 µg/mL.
